Experimental data: patent US20220289732A1, “HETEROCYCLIC WDR5 INHIBITORS AS ANTI-CANCER COMPOUNDS” (NOVARTIS AG, priority 2019, published 2022)
Like-named read-outs stand apart in the source and are kept apart here.

Legend:
WDR5 = WDR5 (Homo sapiens, UniProt P61964); assay: WDR5 HTRF binding assay; conditions: read-out: (a) WDR5 HTRF Pep Val v.1[Inhibitor/IC50]Qualified AC50
Outline: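 In this HTRF displacement format, biotinylated MLL1 WIN peptide (3762-3773, 20 nM) binds WDR5 (6 nM) in 25 mM Hepes pH 7.5 with 100 mM NaCl, 2 mM DTT and 0.1% BSA for 20 min at rt. Detection used streptavidin-APC/anti-His-Eu for 1 hr. IC50 came from dose-response fits of normalized signal; 15 nM biotin-PEG-His peptide served as counter assay.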

MV4-11 cells = assay: MV4-11 6-day cell growth CTG (CellTiter-Glo) assay; type: cell-based; conditions: 6 days, read-out: (c) MLL/WDR5 cell proliferation assay//MLL/WDR5 proliferation MV4:11 Qualified AC50
Outline: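 IC50 comes from a dose-response fit of % inhibition relative to DMSO controls, with viable cells measured by CellTiter-Glo luminescence. Compounds were tested over 12 points (1:3, starting at 50 μM final) on MV4-11 cells plated at 300/well and grown 6 days.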

[1] = target: wild type MLL1 four-member complex (MLL1-4C) (Homo sapiens, UniProt P61964); assay: MLL1 LC-MS assay (SAH production); type: biochemical; conditions: read-out: (b) MLL LCMS Peptide Val.v.1 Qualified AC50
Outline: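 SAH formation, measured by LC-MS/MS after a TFA quench containing d4-SAH, was normalised to no-compound and no-enzyme controls and fitted to a dose-response curve for IC50. Reactions ran 120 min at rt (pH 8.0 Tris buffer) with final 30 nM MLL1 four-member complex, 2.5 μM SAM and 10 μM biotinylated H3[1-21] peptide, after a 20-min enzyme/SAM-compound preincubation.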

IC50 (WDR5) [nM]	AC50 [1] [nM]	SMILES	AC50 (MV4-11 cells; Homo sapiens, MV4-11, 144 h) [nM]	AC50 (MV4-11 cells) [nM]
< 10	10 to 1000	CCOc1cc([C@H](C)N2CCc3c(cc(CCN(C)CC)cc3-c3cc(CC#N)cnc3C)C2=O)ncc1C#N [Example 192, (S)-6-(1-(5-(5-(cyanomethyl)-2-methylpyridin-3-yl)-7-(2-(ethyl(methyl)amino)ethyl)-1-oxo-3,4-dihydroisoquinolin-2(1H)-yl)ethyl)-4-ethoxynicotinonitrile]	10 to 1000	
< 10	10 to 1000	CCOc1cc([C@H](C)N2CCc3c(cc(CCN(C)CC)cc3-c3cn(C)c(=O)cc3CC)C2=O)ncc1C#N [Example 193, (S)-4-ethoxy-6-(1-(7-(2-(ethyl(methyl)amino)ethyl)-5-(4-ethyl-1-methyl-6-oxo-1,6-dihydropyridin-3-yl)-1-oxo-3,4-dihydroisoquinolin-2(1H)-yl)ethyl)nicotinonitrile]	10 to 1000	
< 10	10 to 1000	CCOc1cc([C@H](C)N2CCc3c(cc(CCN(C)CC)cc3-c3ccn(C)c(=O)c3Cl)C2=O)ncc1C#N [Example 194, (S)-6-(1-(5-(3-chloro-1-methyl-2-oxo-1,2-dihydropyridin-4-yl)-7-(2-(ethyl(methyl)amino)ethyl)-1-oxo-3,4-dihydroisoquinolin-2(1H)-yl)ethyl)-4-ethoxynicotinonitrile]	10 to 1000	
10 to 1000	10 to 1000	CCOc1cc([C@H](C)N2CCc3c(cc(CCN(C)CC)cc3-c3ccn(C)c(=O)c3C(F)(F)F)C2=O)ncc1C#N [Example 195, (S)-4-ethoxy-6-(1-(7-(2-(ethyl(methyl)amino)ethyl)-5-(1-methyl-2-oxo-3-(trifluoromethyl)-1,2-dihydropyridin-4-yl)-1-oxo-3,4-dihydroisoquinolin-2(1H)-yl)ethyl)nicotinonitrile]	10 to 1000	
10 to 1000	10 to 1000	CCOc1cc(CN2CCc3c(cc(CCN(C)CC)cc3-c3cn(C)c(=O)cc3C(F)(F)F)C2=O)ncc1C#N [Example 196, 4-ethoxy-6-((7-(2-(ethyl(methyl)amino)ethyl)-5-(1-methyl-6-oxo-4-(trifluoromethyl)-1,6-dihydropyridin-3-yl)-1-oxo-3,4-dihydroisoquinolin-2(1H)-yl)methyl)nicotinonitrile]	10 to 1000	
10 to 1000	10 to 1000	CCOc1cc(C(C)N2CCc3c(cc(CCN(C)CC)cc3-c3cc(Cl)cnc3C)C2=O)ncc1C#N (stereo not drawn) [Example 197, 6-(1-(5-(5-chloro-2-methylpyridin-3-yl)-7-(2-(ethyl(methyl)amino)ethyl)-1-oxo-3,4-dihydroisoquinolin-2(1H)-yl)ethyl)-4-ethoxynicotinonitrile]	10 to 1000	
10 to 1000	10 to 1000	CCOc1cc([C@H](C)N2CCc3c(cc(CCN(C)CC)cc3-c3ccc(N)nc3C(F)(F)F)C2=O)ncc1C#N [Example 198, (S)-6-(1-(5-(6-amino-2-(trifluoromethyl)pyridin-3-yl)-7-(2-(ethyl(methyl)amino)ethyl)-1-oxo-3,4-dihydroisoquinolin-2(1H)-yl)ethyl)-4-ethoxynicotinonitrile]	< 10	
10 to 1000	10 to 1000	CCOc1cc([C@@H](C)N2CCc3c(cc(CCN(C)CC)cc3-c3ccc(N)nc3C(F)(F)F)C2=O)ncc1C#N [Example 199, (R)-6-(1-(5-(6-amino-2-(trifluoromethyl)pyridin-3-yl)-7-(2-(ethyl(methyl)amino)ethyl)-1-oxo-3,4-dihydroisoquinolin-2(1H)-yl)ethyl)-4-ethoxynicotinonitrile]	10 to 1000	
10 to 1000	10 to 1000	CCOc1cc(C(C)N2CCc3c(cc(CCN(C)CC)cc3-c3ccc(N)nc3C(F)F)C2=O)ncc1C#N (stereo not drawn) [Example 200, 6-(1-(5-(6-amino-2-(difluoromethyl)pyridin-3-yl)-7-(2-(ethyl(methyl)amino)ethyl)-1-oxo-3,4-dihydroisoquinolin-2(1H)-yl)ethyl)-4-ethoxynicotinonitrile]	10 to 1000	
10 to 1000	10 to 1000	CCOc1cc(CN2CCc3c(cc(CCN(C)CC)cc3-c3cc(N)cnc3C)C2=O)ncc1C#N [Example 201, 6-((5-(5-amino-2-methylpyridin-3-yl)-7-(2-(ethyl(methyl)amino)ethyl)-1-oxo-3,4-dihydroisoquinolin-2(1H)-yl)methyl)-4-ethoxynicotinonitrile]	10 to 1000	
10 to 1000	10 to 1000	CCOc1cc([C@H](C)N2CCc3c(cc(CCN(C)CC)cc3-c3cc(N)ncc3C(F)(F)F)C2=O)ncc1C#N [Example 202, (S)-6-(1-(5-(2-amino-5-(trifluoromethyl)pyridin-4-yl)-7-(2-(ethyl(methyl)amino)ethyl)-1-oxo-3,4-dihydroisoquinolin-2(1H)-yl)ethyl)-4-ethoxynicotinonitrile]	10 to 1000	
10 to 1000	10 to 1000	CCOc1cc(C(C)N2CCc3c(cc(CCN(C)CC)cc3-c3cc(Cl)nnc3C)C2=O)ncc1C#N (stereo not drawn) [Example 203, 6-(1-(5-(6-chloro-3-methylpyridazin-4-yI)-7-(2-(ethyl(methyl)amino)ethyl)-1-oxo-3,4-dihydroisoquinolin-2(1H)-yl)ethyl)-4-ethoxynicotinonitrile]	10 to 1000	
10 to 1000	10 to 1000	CCOc1cc([C@H](C)N2CCc3c(cc(CCN(C)CC)cc3-c3cn(C)c(=O)cc3C(F)(F)F)C2=O)ncc1F [Example 204, (S)-2-(1-(4-ethoxy-5-fluompyridin-2-yl)ethyl)-7-(2-(ethyl(methyl)amino)ethyl)-5-(1-methyl-6-oxo-4-(trifluoromethyl)-1,6-dihydropyridin-3-yl)-3,4-dihydroisoquinolin-1(2H)-one]		10 to 1000
10 to 1000	10 to 1000	CCOc1cc(C(C)N2CCc3c(cc(CCN(C)CC)cc3-c3cc(C)nn3C)C2=O)ncc1C#N (stereo not drawn) [Example 205, 6-(1-(5-(1,3-dimethyl-1H-pyrazol-5-yl)-7-(2-(ethyl(methyl)amino)ethyl)-1-oxo-3,4-dihydroisoquinolin-2(1H)-yl)ethyl)-4-ethoxynicotinonitrile]	10 to 1000	
10 to 1000	10 to 1000	CCOc1cc(C(C)N2CCc3c(cc(CCN(C)CC)cc3-c3cc4[nH]cnc4nc3C)C2=O)ncc1C#N (stereo not drawn) [Example 206, 4-ethoxy-6-(1-(7-(2-(ethyl(methyl)amino)ethyl)-5-(5-methyl-1H-imidazo[4,5-b]pyridin-6-yl)-1-oxo-3,4-dihydroisoquinolin-2(1H)-yl)ethyl)nicotinonitrile]	10 to 1000	
10 to 1000	10 to 1000	CCOc1cc(C(C)N2CCc3c(cc(CCN(C)CC)cc3N3CCCC3)C2=O)ncc1C#N (stereo not drawn) [Example 207, 4-ethoxy-6-(1-(7-(2-(ethyl(methyl)amino)ethyl)-1-oxo-5-(pyrrolidin-1-yl)-3,4-dihydroisoquinolin-2(1H)-yl)ethyl)nicotinonitrile]	1000 to 25000	
10 to 1000	10 to 1000	CCOc1cc(C(C)N2CCc3c(cc(CCN(C)CC)cc3-n3ccnc3)C2=O)ncc1C#N (stereo not drawn) [Example 208]	1000 to 25000	
10 to 1000	10 to 1000	CCOc1cc([C@H](C)N2CCc3c(cc(CCN(C)CC)cc3N3CC[C@H](O)C3)C2=O)ncc1C#N [Example 210]	1000 to 25000	
< 10	10 to 1000	CCOc1cc(C(C)N2CCc3c(cc(CCN(C)CC)cc3-c3cc(C)nnc3C)C2=O)ncc1C (stereo not drawn) [Example 211, 5-(3,6-dimethylpyridazin-4-yl)-2-(1-(4-ethoxy-5-methylpyridin-2-yl)ethyl)-7-(2-(ethyl(methyl)amino)ethyl)-3,4-dihydroisoquinolin-1(2H)-one]	10 to 1000	
< 10	10 to 1000	CCOc1cc(CN2CCc3c(cc(CCN(C)CC)cc3-c3cc(C)nnc3C)C2=O)ncc1C [Example 212, 5-(3,6-dimethylpyridazin-4-yl)-2-((4-ethoxy-5-methylpyridin-2-yl)methyl)-7-(2-(ethyl(methyl)amino)ethyl)-3,4-dihydroisoquinolin-1(2H)-one]	10 to 1000	
< 10	10 to 1000	CCOc1cc([C@H](C)N2CCc3c(cc(CCN4C[C@@H](O)[C@H]4C)cc3-c3cn(C)nc3C(F)F)C2=O)ncc1C#N [Example 213, 6-((S)-1-(5-(3-(difluoromethyl)-1-methyl-1H-pyrazol-4-yl)-7-(2-((2R,3R)-3-hydroxy-2-methylazetidin-1-yl)ethyl)-1-oxo-3,4-dihydroisoquinolin-2(1H)-yl)ethyl)-4-ethoxynicotinonitrile]	10 to 1000	
< 10	10 to 1000	CCOc1cc([C@H](C)N2CCc3c(cc(CCN4C[C@@H](O)[C@H]4C)cc3-c3cc(N)cnc3C(F)(F)F)C2=O)ncc1C#N [Example 214]	10 to 1000	
< 10	10 to 1000	CCOc1cc([C@H](C)N2CCc3c(cc(CCN4C[C@@H](O)[C@H]4C)cc3-c3cn(C)c(=O)cc3Cl)C2=O)ncc1C#N [Example 215]	10 to 1000	
